The record followed here is patent US12157730B2, “Heteroaryl derivative, method for producing same, and pharmaceutical composition comprising same as effective component” (VORONOI INC., priority 2019, dated 2024).

The target in the assay is T1, Ba/F3 cell EGFR Exon20 ins NPH (Homo sapiens, UniProt P00533, INS773NPH).
T1 construct: expressed in transfected cells; host or cells: Ba/F3
Kind of assay: Ba/F3 cell proliferation suppression, EGFR Exon20 ins NPH. The format is cell-based. Particulars: GI50 class; Ba/F3 cell line with NPH inserted at Exon20 of EGFR; 72 hours. A digest of the protocol:
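Growth suppression determined as GI50 following 72 h exposure across 12 concentrations up to 50 um, with viability by luminescent ATP assay (CellTiter-Glo).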

SMILES strings stand for the structures.

For `C=CC(=O)Nc1cc(Nc2cc(N3OCC[C@@H]3c3ccc(F)c(Cl)c3)ncn2)c(OC)cc1N1CCC(N2C[C@H]3CC[C@@H](C2)O3)CC1` [compound 871, N-(2-(4-((1R,5S)-8-oxa-3-azabicyclo [3.2.1]octan-3-yl)piperidine-1-yl)-5-((6-((R)-3-(3-chloro-4-fluorophenyl)isoxazolidine-2-yl)pyrimidine-4-yl)amino)-4-methoxyphenyl) acrylamide], the “Ba/F3 (NPH) Activity” value was “A (GI50 < 50 nM)”.
The result for `C=CCN1CCN(C2CCN(c3cc(OC)c(Nc4cc(N5OCC[C@@H]5c5cc(F)cc(Cl)c5)ncn4)cc3NC(=O)C=C)CC2)CC1` [Example 214, N-(2-(4-(4-allylpiperazine-1-yl)piperidine-1-yl)-5-((6-((R)-3-(3-chloro-5-fluorophenyl)isoxazolidine-2-yl)pyrimidine-4-yl)amino)-4-methoxyphenyl) acrylamide] reads “A (GI50 < 50 nM)”; that for `C=CC(=O)Nc1cc(Nc2cc(N3OCC[C@@H]3c3ccccc3)ncn2)c(OC)cc1N1CCC(N2CCN(C3CCCC3)CC2)CC1` [Example 97, N-(2-(4-(4-cyclopentylpiperazine-1-yl)piperidine-1-yl)-4-methoxy-5-((6-((R)-3-phenylisoxazolidine-2-yl)pyrimidine-4-yl)amino)phenyl) acrylamide], “A (GI50 < 50 nM)”; that for `C=CC(=O)Nc1cc(Nc2cc(N3OCC[C@@H]3c3ccc(F)c(Cl)c3)ncn2)c(OC)cc1N1CC[C@H](N(C)C)C1` [compound 906, N-(5-((6-((R)-3-(3-chloro-4-fluorophenyl)isoxazolidine-2-yl)pyrimidine-4-yl)amino)-2-((S)-3-(dimethylamino)pyrolidine-1-yl)-4-methoxyphenyl) acrylamide], “A (GI50 < 50 nM)”.
`C=CC(=O)Nc1cc(Nc2cc(N3OCC[C@@H]3c3cccc(F)c3Cl)ncn2)c(OC)cc1N1CCN(C)CC1` [compound 552, N-(5-((6-((R)-3-(2-chloro-3-fluorophenyl)isoxazolidine-2-yl)pyrimidine-4-yl)amino)-4-methoxy-2-(4-methylpiperazine-1-yl)phenyl)acrylamide]: the “Ba/F3 (NPH) Activity” value is “A (GI50 < 50 nM)”.
Then `C=CCN1CCN(C2CCN(c3cc(OC)c(Nc4cc(N5OCC[C@@H]5c5cc(F)cc(F)c5)ncn4)cc3NC(=O)C=C)CC2)CC1` [Example 87, N-(2-(4-(4-allylpiperazine-1-yl)piperidine-1-yl)-5-((6-((R)-3-(3,5-difluorophenyl)isoxazolidine-2-yl)pyrimidine-4-yl)amino)-4-methoxyphenyl) acrylamide], with “A (GI50 < 50 nM)”; and `C=CC(=O)Nc1cc(Nc2cc(N3OCC[C@@H]3Cc3cccc(F)c3C)ncn2)c(OC)cc1N1CCC(N2C[C@@H]3C[C@H]2CO3)CC1` [compound 1040, N-(2-(4-((1S,4S)-2-oxa-5-azabicyclo [2.2.1]heptane-5-yl)piperidine-1-yl)-5-((6-((S)-3-(3-fluoro-2-methylbenzyl)isoxazolidine-2-yl)pyrimidine-4-yl)amino)-4-methoxyphenyl) acrylamide], with “A (GI50 < 50 nM)”; and `C=CC(=O)Nc1cc(Nc2cc(N3OCC[C@@H]3c3cccc4ccccc34)ncn2)c(OC)cc1N(C)CCN(C)C` [compound 440, N-(2-((2-(dimethylamino)ethyl) (methyl)amino)-4-methoxy-5-((6-((R)-3-(naphthalene-1-yl)isoxazolidine-2-yl)pyrimidine-4-yl)amino)phenyl)acrylamide], with “A (GI50 < 50 nM)”.
The result for `C=CC(=O)Nc1cc(Nc2cc(N3OCC[C@@H]3c3ccccc3)ncn2)c(OC)cc1N1CCC(N2CCC(N(C)C)CC2)CC1` [compound 740, N-(2-(4-(dimethylamino)-[1,4'-bipiperidine]-1'-yl)-4-methoxy-5-((6-((R)-3-phenylisoxazolidine-2-yl)pyrimidine-4-yl)amino)phenyl)acrylamide] reads “A (GI50 < 50 nM)”; that for `C=CC(=O)Nc1cc(Nc2cc(N3OCC[C@@H]3c3ccc(F)c(F)c3)ncn2)c(OC)cc1N1CCC(N2C[C@H]3C[C@@H]2CO3)CC1` [compound 498, N-(2-(4-((1R,4R)-2-oxa-5-azabicyclo[2.2.1]heptane-5-yl)piperidine-1-yl)-5-((6-((R)-3-(3,4-difluorophenyl)isoxazolidine-2-yl)pyrimidine-4-yl)amino)-4-methoxyphenyl) acrylamide], “A (GI50 < 50 nM)”.
The result for `C=CC(=O)Nc1cc(Nc2cc(N3OCC[C@@H]3c3cccc(F)c3Cl)ncn2)c(OC)cc1N1CC[C@@H](N(C)C)C1` [compound 558, N-(5-((6-((R)-3-(2-chloro-3-fluorophenyl)isoxazolidine-2-yl)pyrimidine-4-yl)amino)-2-((R)-3-(dimethylamino)pyrolidine-1-yl)-4-methoxyphenyl) acrylamide] reads “A (GI50 < 50 nM)”.
Consider `C=CC(=O)Nc1cc(Nc2cc(N3OCC[C@@H]3c3cccc(Cl)c3F)ncn2)c(OC)cc1N1CCC(N2CCOCC2)CC1` [compound 788, N-(5-((6-((R)-3-(3-chloro-2-fluorophenyl)isoxazolidine-2-yl)pyrimidine-4-yl)amino)-4-methoxy-2-(4-morpholinopiperidine-1-yl)phenyl)acrylamide], for which the “Ba/F3 (NPH) Activity” value is given as “A (GI50 < 50 nM)”.
The result for `C=CC(=O)Nc1cc(Nc2cc(N3OCC[C@@H]3c3cccc(Cl)c3F)ncn2)c(OC)cc1N1CCC(N2CCN(CC3CC3)CC2)CC1` [Example 96, N-(5-((6-((R)-3-(3-chloro-2-fluorophenyl)isoxazolidine-2-yl)pyrimidine-4-yl)amino)-2-(4-(4-(cyclopropylmethyl)piperazine-1-yl)piperidine-1-yl)-4-methoxyphenyl) acrylamide] reads “A (GI50 < 50 nM)”; that for `C#Cc1cccc([C@H]2CCON2c2cc(Nc3cc(NC(=O)C=C)c(N4CCC(N5C[C@@H](C)O[C@@H](C)C5)CC4)cc3OC)ncn2)c1` [compound 651, N-(2-(4-((2S,6R)-2,6-dimethylmorpholino)piperidine-1-yl)-5-((6-((R)-3-(3-ethynylphenyl)isoxazolidine-2-yl)pyrimidine-4-yl)amino)-4-methoxyphenyl) acrylamide], “A (GI50 < 50 nM)”.
The result for `C=CC(=O)Nc1cc(Nc2cc(N3OCC[C@@H]3c3cccc4ccccc34)ncn2)c(OC)cc1N1CCN(C2COC2)CC1` [compound 439, N-(4-methoxy-5-((6-((R)-3-(naphthalene-1-yl)isoxazolidine-2-yl)pyrimidine-4-yl)amino)-2-(4-(oxetane-3-yl)piperazine-1-yl)phenyl) acrylamide] reads “A (GI50 < 50 nM)”.
Then `C=CC(=O)Nc1cc(Nc2cc(N3OCC[C@@H]3Cc3cccc(Cl)c3Cl)ncn2)c(OC)cc1N1CCC(N2CCO[C@H](C)C2)CC1` [compound 1011, N-(5-((6-((S)-3-(2,3-dichlorobenzyl)isoxazolidine-2-yl)pyrimidine-4-yl)amino)-4-methoxy-2-(4-((R)-2-methylmorpholino)piperidine-1-yl)phenyl) acrylamide], with “A (GI50 < 50 nM)”; and `C=CC(=O)Nc1cc(Nc2cc(N3OCC[C@@H]3c3ccc4ccccc4c3)ncn2)c(OC)cc1N1C[C@H](C)O[C@@H](C)C1` [compound 660, N-(2-((2S,6S)-2,6-dimethylmorpholino)-4-methoxy-5-((6-((R)-3-(naphthalene-2-yl)isoxazolidine-2-yl)pyrimidine-4-yl)amino)phenyl)acrylamide], with “C (500 nM ≤ GI50 < 5000 nM)”.
